The values below come from article PMC8688152, “Distinct classes of potassium channels fused to GPCRs as electrical signaling biosensors” (Cell Reports Methods, 2021).

SMILES strings stand for the structures.

One assay deals with T1, M2_T-00-37 (UniProt P08172+P97438).
T1 construct: M2_T-00-37 with zero deletion in the M2 receptor C terminus (full-length receptor); expressed in transfected cells; host or cells: Xenopus oocytes (mRNA injection)
Description: TEVC recording of M2_T-00-37 ICCR in Xenopus oocytes. Format: cell-based, human (M2), mouse (TREK-1). As to conditions: 91 mM K+, Vm = −50 mV, mean ± SEM. On the procedure: (§1) Microelectrodes were filled with […]. […] The membrane voltage was clamped to −50 mV.

In another assay the target is T2, M2_T-00-46 (UniProt P08172+P97438).
T2 construct: full-length (−00) or M2 deleted of its last nine residues (−09) in the indicated ICCRs; expressed in transfected cells; host or cells: Xenopus oocytes (mRNA injection); gene synthesized by GeneCust
T2 sequence (P08172+P97438 fused): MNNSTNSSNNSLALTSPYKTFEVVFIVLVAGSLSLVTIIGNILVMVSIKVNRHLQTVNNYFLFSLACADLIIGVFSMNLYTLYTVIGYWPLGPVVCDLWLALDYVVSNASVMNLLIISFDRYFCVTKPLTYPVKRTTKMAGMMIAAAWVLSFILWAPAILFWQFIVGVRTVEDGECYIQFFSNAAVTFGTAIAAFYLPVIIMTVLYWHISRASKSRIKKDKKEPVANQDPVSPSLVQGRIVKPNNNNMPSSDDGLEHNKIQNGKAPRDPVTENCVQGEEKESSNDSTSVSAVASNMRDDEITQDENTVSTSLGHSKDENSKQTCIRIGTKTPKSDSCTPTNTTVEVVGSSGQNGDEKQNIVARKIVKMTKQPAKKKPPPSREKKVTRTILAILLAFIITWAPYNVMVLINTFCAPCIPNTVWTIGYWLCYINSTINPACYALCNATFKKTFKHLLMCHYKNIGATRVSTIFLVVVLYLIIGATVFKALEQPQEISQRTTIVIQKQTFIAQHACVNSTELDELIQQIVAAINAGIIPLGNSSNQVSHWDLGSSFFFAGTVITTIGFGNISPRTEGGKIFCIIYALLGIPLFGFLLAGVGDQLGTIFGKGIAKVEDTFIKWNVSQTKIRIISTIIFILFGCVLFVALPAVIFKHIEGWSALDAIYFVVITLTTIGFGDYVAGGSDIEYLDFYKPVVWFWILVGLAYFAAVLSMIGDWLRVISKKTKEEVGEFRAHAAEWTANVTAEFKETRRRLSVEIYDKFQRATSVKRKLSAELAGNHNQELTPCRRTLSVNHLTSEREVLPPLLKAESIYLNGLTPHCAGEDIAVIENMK
Put plainly: TEVC recording of M2_T-00-46 ICCR in Xenopus oocytes. As to conditions: 91 mM K+, Vm = −50 mV, mean ± SEM. Type of assay: cell-based, human (M2), mouse (TREK-1). On the procedure: as §1

The next assay deals with T3, M2_T-09-40 (UniProt P08172+P97438).
T3 construct: expressed in transfected cells; host or cells: Xenopus oocytes (mRNA injection)
T3 sequence (P08172+P97438 fused): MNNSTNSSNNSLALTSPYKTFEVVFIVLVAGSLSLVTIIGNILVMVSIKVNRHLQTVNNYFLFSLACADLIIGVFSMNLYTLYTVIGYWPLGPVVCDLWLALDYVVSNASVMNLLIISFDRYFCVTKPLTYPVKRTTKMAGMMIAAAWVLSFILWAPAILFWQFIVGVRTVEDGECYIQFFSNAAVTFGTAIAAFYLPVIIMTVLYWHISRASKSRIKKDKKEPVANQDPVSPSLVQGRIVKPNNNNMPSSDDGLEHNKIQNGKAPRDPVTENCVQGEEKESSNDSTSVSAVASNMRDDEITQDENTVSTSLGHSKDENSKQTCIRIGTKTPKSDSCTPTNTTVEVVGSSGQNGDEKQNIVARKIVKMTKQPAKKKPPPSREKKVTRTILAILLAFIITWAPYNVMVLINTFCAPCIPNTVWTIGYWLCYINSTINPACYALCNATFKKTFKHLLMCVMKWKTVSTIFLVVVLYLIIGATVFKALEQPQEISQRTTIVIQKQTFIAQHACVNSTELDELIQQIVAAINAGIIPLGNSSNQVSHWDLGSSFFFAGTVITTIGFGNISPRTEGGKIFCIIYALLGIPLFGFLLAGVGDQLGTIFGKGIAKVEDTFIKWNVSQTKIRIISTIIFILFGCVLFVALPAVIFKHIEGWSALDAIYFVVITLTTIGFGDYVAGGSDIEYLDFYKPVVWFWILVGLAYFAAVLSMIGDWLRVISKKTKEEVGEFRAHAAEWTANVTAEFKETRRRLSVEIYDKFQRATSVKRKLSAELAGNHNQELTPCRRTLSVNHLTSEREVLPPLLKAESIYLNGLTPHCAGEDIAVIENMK
Put plainly: TEVC recording of M2_T-09-40 in Xenopus oocytes. Type of assay: cell-based, human (M2), mouse (TREK-1). Conditions: ACh 5 μM. On the procedure:
as §1

The target of assay [1] is T4, I252T mutant of M2_T-00-40 (UniProt P08172+P97438, I267T).
T4 construct: full-length (−00) or M2 deleted of its last nine residues (−09) in the indicated ICCRs; expressed in transfected cells; host or cells: Xenopus oocytes (mRNA injection)
T4 sequence (P08172+P97438 fused P97438:I267T): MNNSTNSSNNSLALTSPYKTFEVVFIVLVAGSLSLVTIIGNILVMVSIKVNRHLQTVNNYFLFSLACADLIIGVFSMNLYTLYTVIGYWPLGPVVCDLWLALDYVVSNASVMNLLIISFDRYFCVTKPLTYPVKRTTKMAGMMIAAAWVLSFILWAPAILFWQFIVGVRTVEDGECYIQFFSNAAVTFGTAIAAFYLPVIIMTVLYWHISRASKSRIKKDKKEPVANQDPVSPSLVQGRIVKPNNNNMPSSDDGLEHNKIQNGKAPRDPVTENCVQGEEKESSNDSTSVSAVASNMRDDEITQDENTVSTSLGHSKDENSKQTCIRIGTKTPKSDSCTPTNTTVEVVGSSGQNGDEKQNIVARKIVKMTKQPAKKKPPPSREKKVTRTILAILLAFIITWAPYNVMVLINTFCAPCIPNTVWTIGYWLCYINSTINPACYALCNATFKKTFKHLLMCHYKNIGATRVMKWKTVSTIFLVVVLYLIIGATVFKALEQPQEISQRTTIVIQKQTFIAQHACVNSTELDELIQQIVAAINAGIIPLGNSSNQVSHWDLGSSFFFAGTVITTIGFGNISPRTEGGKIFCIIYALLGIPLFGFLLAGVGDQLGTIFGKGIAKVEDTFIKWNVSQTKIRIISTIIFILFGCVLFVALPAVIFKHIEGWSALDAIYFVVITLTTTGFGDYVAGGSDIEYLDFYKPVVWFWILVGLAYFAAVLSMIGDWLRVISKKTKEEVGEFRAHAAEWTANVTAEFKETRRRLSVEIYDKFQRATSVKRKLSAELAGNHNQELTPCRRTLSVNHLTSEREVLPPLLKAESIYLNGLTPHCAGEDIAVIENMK
Format: cell-based, human (M2), mouse (TREK-1). On the procedure: (§2) Xenopus oocytes were prepared as previously reported ([Moreau et al., 2008]). Briefly, after surgical retrieval, the oocytes were defolliculated by type 1A collagenase. Each oocyte was injected with 50 nl of RNAse-free water containing the desired mRNAs. The mRNA quantities used per oocyte were: ICCR with Kcv, 2.7 ng (M2_Kcv and D2_Kcv) and 2.9 ng (OXTR_Kcv); ICCR with mTREK-1, 4.2 ng; ICCR with Kir6.2, 4.3 ng; M2, 2.3 ng; D2, 2.2 ng; Kir3.4T, 2.2 ng; Kcv 0.46 ng and mTREK-1, 2.1 ng. Microinjected oocytes were incubated 2 to 3 days at 19°C in modified-Barth's solution (in mM: 1 KCl, 0.82 MgSO4, 88 NaCl, 2.4 NaHCO3, 0.41 CaCl2, 16 HEPES, pH 7.4) supplemented with 100 U.ml^−1 of penicillin and streptomycin and 0.1 mg.mL^−1 of gentamycin. Animal handling and experiments fully conformed to European regulations and were approved by the French Ministry of Higher Education and Research (APAFIS#4420-2016030813053199 v4 to CM). […]
(§3) Two-electrode voltage-clamp (TEVC) recordings were performed automatically with HiClamp robots (MultiChannel Systems). […] Ligand effects were measured in high potassium concentration buffer with the membrane potential clamped to −50 mV and at 19°C.
(§4) Change of potassium current induced by ligand was calculated either with the barium-sensitive currents as a 0-reference for Kcv-based ICCRs or with the currents in ND96 for mTREK-1 ICCRs. […]

Assay [2] deals with I252T mutant of M2_T-00-40. Format: cell-based, human (M2), mouse (TREK-1). Conditions: ACh 5 μM; I252T versus WT M2_T-00-40. Here is the method: as §2, §3, §4
Another assay deals with unfused Kcv (Paramecium bursaria Chlorella virus 1, UniProt Q84568). Put plainly: TEVC controls: unfused Kcv co-expressed with M2, and Kcv alone. Type of assay: cell-based. As to conditions: co-expression of unfused M2 and Kcv, and Kcv alone. Here is the method:
as §1

A further assay relates to M2_Kir6.2-09-25. Further details: method as in Moreau et al., 2017. Conditions: Kir6.2 ICCRs; ref Moreau et al., 2017; read-out: IC50 observed with Kir6.2 ICCRs; cited from earlier work.
A further assay addresses T5, M2_T-00-43 (UniProt P08172+P97438).
T5 sequence (P08172+P97438 with tags, fused parts or gaps): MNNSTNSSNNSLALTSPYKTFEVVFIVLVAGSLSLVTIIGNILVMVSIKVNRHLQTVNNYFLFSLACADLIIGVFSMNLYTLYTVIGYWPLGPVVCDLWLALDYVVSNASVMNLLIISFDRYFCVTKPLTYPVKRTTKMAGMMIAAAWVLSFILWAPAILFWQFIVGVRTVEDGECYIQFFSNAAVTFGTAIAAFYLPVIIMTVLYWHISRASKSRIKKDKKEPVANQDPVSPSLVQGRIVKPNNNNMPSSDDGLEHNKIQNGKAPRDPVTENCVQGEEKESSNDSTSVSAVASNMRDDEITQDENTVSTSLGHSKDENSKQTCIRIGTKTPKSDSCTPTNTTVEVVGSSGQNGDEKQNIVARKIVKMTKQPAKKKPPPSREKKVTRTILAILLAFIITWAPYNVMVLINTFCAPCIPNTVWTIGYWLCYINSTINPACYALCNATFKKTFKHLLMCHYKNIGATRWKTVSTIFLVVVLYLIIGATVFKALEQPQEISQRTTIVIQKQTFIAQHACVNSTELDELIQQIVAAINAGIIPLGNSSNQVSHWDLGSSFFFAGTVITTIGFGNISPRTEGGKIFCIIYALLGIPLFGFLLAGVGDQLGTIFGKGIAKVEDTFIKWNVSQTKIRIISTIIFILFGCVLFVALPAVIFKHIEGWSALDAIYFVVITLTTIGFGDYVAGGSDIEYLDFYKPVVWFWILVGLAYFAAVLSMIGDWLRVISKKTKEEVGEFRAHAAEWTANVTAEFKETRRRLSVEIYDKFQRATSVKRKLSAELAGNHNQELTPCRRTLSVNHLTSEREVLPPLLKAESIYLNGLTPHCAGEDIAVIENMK
Put plainly: TEVC recording of M2_T-00-43 ICCR in Xenopus oocytes. Details: full-length (−00) or M2 deleted of its last nine residues (−09) in the indicated ICCRs; expressed in transfected cells; host or cells: Xenopus oocytes (mRNA injection). Format: cell-based, human (M2), mouse (TREK-1). On the procedure:
Xenopus oocytes were prepared as previously reported ([Moreau et al., 2008]). Briefly, after surgical retrieval, the oocytes were defolliculated by type 1A collagenase. Each oocyte was injected with 50 nl of RNAse-free water containing the desired mRNAs. The mRNA quantities used per oocyte were: ICCR with Kcv, 2.7 ng (M2_Kcv and D2_Kcv) and 2.9 ng (OXTR_Kcv); ICCR with mTREK-1, 4.2 ng; ICCR with Kir6.2, 4.3 ng; M2, 2.3 ng; D2, 2.2 ng; Kir3.4T, 2.2 ng; Kcv 0.46 ng and mTREK-1, 2.1 ng. Microinjected oocytes were incubated 2 to 3 days at 19°C in modified-Barth's solution (in mM: 1 KCl, 0.82 MgSO4, 88 NaCl, 2.4 NaHCO3, 0.41 CaCl2, 16 HEPES, pH 7.4) supplemented with 100 U.ml^−1 of penicillin and streptomycin and 0.1 mg.mL^−1 of gentamycin. Animal handling and experiments fully conformed to European regulations and were approved by the French Ministry of Higher Education and Research (APAFIS#4420-2016030813053199 v4 to CM). Authorization of the animal facility has been delivered by the Prefect of Isere (Authorization #D 38 185 10 001).
Two-electrode voltage-clamp (TEVC) recordings were performed automatically with HiClamp robots (MultiChannel Systems). These TEVC robots rapidly change the applied solutions by transferring the oocytes in different wells of a 96-well plate. […] Microelectrodes were filled with […]. During recordings, oocytes were incubated in low potassium concentration buffer (ND96, in mM: 96 NaCl, 2 KCl, 1.8 CaCl2, 1 MgCl2, 5 HEPES, pH 7.4 supplemented with 0.3 niflumic acid), and in high potassium buffer (in mM: 91 KCl, 1.8 CaCl2, 1 MgCl2, 5 HEPES, 0.3 niflumic acid, pH 7.4). The membrane voltage was clamped to −50 mV. Ligands and BaCl2 were diluted in the high potassium buffer. […] Ligand effects were measured in high potassium concentration buffer with the membrane potential clamped to −50 mV and at 19°C.
Change of potassium current induced by ligand was calculated either with the barium-sensitive currents as a 0-reference for Kcv-based ICCRs or with the currents in ND96 for mTREK-1 ICCRs. Softwares created by Michel Vivaudou ([Vivaudou, 2019]) were used to extract the raw data.

unfused Kcv, sequence (Q84568 whole entry, the tested form may be a part): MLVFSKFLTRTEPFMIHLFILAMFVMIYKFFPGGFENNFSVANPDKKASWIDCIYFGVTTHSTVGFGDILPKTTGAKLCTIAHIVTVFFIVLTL
T1 sequence (P08172+P97438 fused): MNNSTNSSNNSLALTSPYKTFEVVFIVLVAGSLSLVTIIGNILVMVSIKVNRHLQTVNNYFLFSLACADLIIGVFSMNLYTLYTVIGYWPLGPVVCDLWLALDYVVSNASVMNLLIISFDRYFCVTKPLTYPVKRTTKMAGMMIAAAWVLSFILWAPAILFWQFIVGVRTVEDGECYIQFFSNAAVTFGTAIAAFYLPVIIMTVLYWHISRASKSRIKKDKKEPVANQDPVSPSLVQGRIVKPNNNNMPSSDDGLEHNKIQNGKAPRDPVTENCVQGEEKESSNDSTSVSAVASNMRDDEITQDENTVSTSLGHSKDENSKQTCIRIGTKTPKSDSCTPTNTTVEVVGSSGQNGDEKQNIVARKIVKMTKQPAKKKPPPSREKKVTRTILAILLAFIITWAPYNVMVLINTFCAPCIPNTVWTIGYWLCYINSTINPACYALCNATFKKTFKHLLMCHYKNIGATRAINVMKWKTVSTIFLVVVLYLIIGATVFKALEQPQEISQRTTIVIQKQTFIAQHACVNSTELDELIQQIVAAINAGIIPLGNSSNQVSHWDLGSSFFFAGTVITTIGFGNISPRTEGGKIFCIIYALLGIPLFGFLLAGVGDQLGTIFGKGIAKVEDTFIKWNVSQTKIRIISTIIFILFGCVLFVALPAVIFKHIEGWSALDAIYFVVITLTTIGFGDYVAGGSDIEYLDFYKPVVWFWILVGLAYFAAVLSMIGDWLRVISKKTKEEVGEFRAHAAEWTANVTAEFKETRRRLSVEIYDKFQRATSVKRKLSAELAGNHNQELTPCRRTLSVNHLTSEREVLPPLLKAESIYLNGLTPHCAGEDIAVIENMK

Usually IC50 stands for the concentration that gives 50% inhibition. Turning to `CC(=O)OCC[N+](C)(C)C` [ACh, acetylcholine], at M2_T-00-37, the “activation: % of current change induced by ACh 5 μM on M2_T-00-37” value is on record as 3.9% ± 0.9%. In addition, the “activation: % of current change induced by ACh 5 μM on M2_T-00-46” value at M2_T-00-46 is given as 35.2% ± 1.6%. Besides, the “regulation of M2_T-09-40 by ACh” value at M2_T-09-40 is recorded as “no significant regulation”. Further, in assay [1], the “activation induced by ACh on the I252T mutant of M2_T-00-40” value is 84.7% ± 11.2%. Moreover, the “increase of ACh-induced activation of the I252T mutant compared with the WT counterpart” value in assay [2] is listed as “more than 4 fold”. The “regulation of unfused Kcv by ACh” value on unfused Kcv was “absence of regulation”. In the assay with M2_Kir6.2-09-25, the IC50 was 1.25 µM. In addition, at M2_T-00-43, the “Hill coefficient (nH) on M2_T-00-43” value came out at 0.76 and the “activation: % of current change induced by ACh 5 μM on M2_T-00-43” value is given as 49.9% ± 5.1%. At M2_T-00-43 (5 μM, co-injection of mRNA for pertussis toxin S1 subunit, mean ± SEM), the “activation: % of current change induced by ACh 5 μM on M2_T-00-43 co-expressed with PTX” value is on record as 49.3% ± 4.4%.
